Entries after “also recorded” stand apart in the source; their conditions may differ.
Columns and labels:
spleen lymphocytes [1] = assay: In vitro lymphocyte stimulation assay, C57BL/6 spleen lymphocytes; type: cell-based, mouse
Method: (§1) The purpose of this assay is to challenge lymphocytes in microcultures with one or more polyclonal mitogens at concentrations that will induce mitogenesis within 72 hours of stimulation.
(§2) In the mouse model, spleens are removed from different strains of mice and the spleen cells are teased free and suspended in RPMI-1640 tissue culture medium at a concentration of usually […]. These cells are dispensed at a concentration of 5.0×10^5 cells per microculture well in a 96 well flat bottom 96 well tissue culture plate. All testing of the compounds of this invention or mitogens are done in replicates of 10. The cells are then treated with PHA, Con-A, specific antigens, or buffer only. If in vitro testing is done, varying concentrations of the compounds of this invention or buffer only are added to the cells as well. After treatment with the mitogens and/or compounds of this invention, the cells are incubated for 72 hours. The response of these cells to mitogens and/or the compounds of this invention is assessed using ^14 C-thymidine labeling on the fourth day at a concentration of 0.01 μCi/well. The labeled cells are harvested using a lymphocyte harvestor and placed onto fibrous paper discs. A scintillation cocktail is added to vials containing the discs and the results are obtained using a LKB-liquid scintillation counter (Model 1216/Rackbeta II). The data is expressed as a ratio of the cpm of the mitogen stimulated group to the control (nonmitogen) treated group=lymphocyte stimulation index (LSI).
(§3) The lymphocyte stimulation assay may be performed directly on spleen cells obtained from various strains of mice not treated with the compounds of this invention or on lymphocytes obtained from human […]. […] Alternatively, the mice may be treated in vivo with the compounds of this invention by intraperitoneal multi-dose schedules, followed by sacrifice and harvesting spleen lymphocytes. These cells are then tested for their response to polyclonal mitogens or specific antigens used to immunize the mice. In this system however, no additional compound is added to the in vitro lymphocyte stimulation assay system.
An in vitro lymphocyte stimulation assay is performed directly on normal spleen lymphocytes removed from five normal C57BL/6 mice, using concentrations of Cpd. […] Following three days of incubation the assay is completed.
An in vitro lymphocyte stimulation assay was performed using spleen lymphocytes from normal C57BL/6 mice. The lymphocytes were treated with either 1, 5, 10, 50 or 100 μg/well of Cpd. 1 or buffer.
Cpd. 2 was tested using normal spleen lymphocytes from C57BL/6 mice. A lymphocyte stimulation assay was conducted using either 1, 5, 10, 50, or 100 μg/well […] or just buffer.
Spleen cells from C57BL/6 mice were treated, in vitro, with the crystallizing reagents, succinic acid and succinimide. Since these compounds are spontaneously released from the molecular complex in solution at a molar ratio of 2 moles of Cpds. 1, 2, or 3 per mole of the crystalline reagent, these reagents were treated in the lymphocyte stimulation assay at proper molar concentrations.
The compound of example 3, Cpd. 3, was used to treat C57BL/6 spleen lymphocytes in vitro. The lymphocytes were treated with either 1, 5, 10, 50, or 100 μg/well of Cpd. 3 or just buffer and then a lymphocyte stimulation assay was performed.

L-1210 leukemia cells = assay: Treatment of L-1210 leukemia in BDF1 mice (T/C ratios); type: in vivo, mouse; conditions: 20 mg/kg, seven days
Description: Mice of the BDF1 strain are given in i.p. inoculation of 10^6 L-1210 leukemia cells on day 0. Twenty-four hours later, groups of 7 mice each are started on a nine day treatment regimen of various doses of the compounds of this invention. The experiment is continued according to the guidelines provided under the National Cancer Institute protocol for screening new anti-cancer agents and T/C ratios (median or mean survival time of treated groups over median or mean survival time of controls) are calculated. A T/C value ≥1.25 (or 125%) is considered significant anticancer activity.
(§4) Mice of the BDF1 strain, inoculated with L-1210 leukemia cells, are treated for seven days with either 25, 50, 100, 200 or 400 mg/kg of Cpd. 1 or just buffer. The National Cancer Institute protocol for screening new anti-cancer agents is followed and T/C ratios are calculated.
as §4, with “either 100” for “either 25, 50, 100, 200 or 400”, “Cpd. 1, 20 mg/kg of 5-flourouracil (5-FU), a known anti-cancer agent,” for “Cpd. 1”

spleen lymphocytes [2] = assay: Lymphocyte stimulation assay after in vivo treatment, C57BL/6 mice; conditions: 4 days
Method: as §1, §2, §3
Two strains of mice, C57BL/6 and BDF1 are treated for seven days with i.p. administration of either 25, 50, 100, 200, or 400 mg/kg of Cpd. 1 or just buffer. This is followed on the eighth day by a lymphocyte stimulation assay.
A comparison is made of the lymphocyte response of C57BL/6 mice treated 4 days with i.p. administration of either 50, 100, 200, 400 or 800 mg/kg of Cpd. 1, 50, 100, 200, 400 or 800 mg/kg of ascorbic acid (AA), or just buffer. This is followed on the fifth day by a lymphocyte stimulation assay.
Two strains of mice, C57BL/6 and BALB/c, are treated 4 days with i.p. administration of either 50, 100, 200, or 400 mg/kg of Cpd. 1, or just buffer. This is followed on the fifth day by a lymphocyte stimulation assay.
C57BL/6 mice were treated with four daily i.p. doses of either 50, 100, 200, or 400 mg/kg of Cpd. 1 or just buffer. On the fifth day a lymphocyte stimulation assay was performed.
Mice of the C57BL/6 strain were tested with i.p. administration of either 100, 200, 400 or 600 mg/kg of Cpd. 1 or just buffer. This was followed by removal of spleens and treatment of lymphocytes therein with mitogens PHA and Con-A.
The compound of Example 2, Cpd. 2, was tested in vivo by using C57BL/6 mice and treating them with […] or just buffer for four consecutive days by the i.p. route. On the fifth day a lymphocyte stimulation assay was performed.

human lymphocytes = assay: In vitro lymphocyte stimulation assay, human lymphocytes; type: cell-based; parameters: key to Lymphocyte Stimulation Index, PHA / Lymphocyte Stimulation Index, Con-A: LSI = cpm of mitogen-stimulated group / cpm of control group
Method: as §1, §2, §3
Lymphocytes isolated from 5 human volunteers are treated in vitro with PHA and Con-A and either 0.1, 1, 10, 50, or 100 μg/well of Cpd. 1, 0.1, 1, 10, 50, or 100 μg/well of AA, or buffer.

SMILES: CN1C(=O)CCC1=O.Cc1ccc(C2(O)C(=O)OC3C(O)COC32O)o1.Cc1ccc(C2(O)C(=O)OC3C(O)COC32O)o1 (centres unmarked) [Cpd. 3, 2-furylbutyrolactone:N-methylsuccinimide]
- Lymphocyte Stimulation Index, Control (no mitogen) (spleen lymphocytes [1]; 1 μg/well): .60
- Lymphocyte Stimulation Index, Control (no mitogen) (spleen lymphocytes [1]; 5 μg/well): .64
- Lymphocyte Stimulation Index, Control (no mitogen) (spleen lymphocytes [1]; 10 μg/well): .47
- Lymphocyte Stimulation Index, PHA (spleen lymphocytes [1]; 10 μg/well): 24.0
- Lymphocyte Stimulation Index, Control (no mitogen) (spleen lymphocytes [1]; 50 μg/well): .27
- Lymphocyte Stimulation Index, Control (no mitogen) (spleen lymphocytes [1]; 100 μg/well): .25
- effect on Con-A response (in words) (spleen lymphocytes [1]; in vitro, Con-A): The 50 μg/well dose slightly stimulated the response to Con-A; also recorded: the 100 μg/well dose suppressed the response
- effect on PHA response (in words) (spleen lymphocytes [1]; in vitro, PHA): The 10 μg/well dose of Cpd. 3 significantly stimulated the response to PHA; also recorded: the 50 and 100 μg/well doses suppressed the response

SMILES: O=c1[nH]cc(F)c(=O)[nH]1 [5-FU, 5-flourouracil, reference compound]
- Median Survival Time (L-1210 leukemia cells): 30
- T/C (L-1210 leukemia cells): 1.50

SMILES: O=C1O[C@H]([C@@H](O)CO)C(O)=C1O [AA, ascorbic acid, reference compound]
- Lymphocyte Stimulation Index, Con-A (spleen lymphocytes [2]; 50 mg/kg i.p.): 25.5
- Lymphocyte Stimulation Index, Control (no mitogen) (spleen lymphocytes [2]; 50 mg/kg i.p.): .56
- Lymphocyte Stimulation Index, PHA (spleen lymphocytes [2]; 50 mg/kg i.p.): 17.1
- Lymphocyte Stimulation Index, Con-A (spleen lymphocytes [2]; 100 mg/kg i.p.): 19.8
- Lymphocyte Stimulation Index, Control (no mitogen) (spleen lymphocytes [2]; 100 mg/kg i.p.): 1.8
- Lymphocyte Stimulation Index, PHA (spleen lymphocytes [2]; 100 mg/kg i.p.): 17.1
- Lymphocyte Stimulation Index, Con-A (spleen lymphocytes [2]; 200 mg/kg i.p.): 21.1
- Lymphocyte Stimulation Index, Control (no mitogen) (spleen lymphocytes [2]; 200 mg/kg i.p.): 1.3
- Lymphocyte Stimulation Index, PHA (spleen lymphocytes [2]; 200 mg/kg i.p.): 10.0
- Lymphocyte Stimulation Index, Con-A (spleen lymphocytes [2]; 400 mg/kg i.p.): 17.8
- Lymphocyte Stimulation Index, Control (no mitogen) (spleen lymphocytes [2]; 400 mg/kg i.p.): 1.3
- Lymphocyte Stimulation Index, PHA (spleen lymphocytes [2]; 400 mg/kg i.p.): 14.3
- Lymphocyte Stimulation Index, Con-A (spleen lymphocytes [2]; 800 mg/kg i.p.): 23.9
- Lymphocyte Stimulation Index, Control (no mitogen) (spleen lymphocytes [2]; 800 mg/kg i.p.): .50
- Lymphocyte Stimulation Index, PHA (spleen lymphocytes [2]; 800 mg/kg i.p.): 12.1
- effect on Con-A response (in words) (spleen lymphocytes [2]; i.p., Con-A): a single stimulation of proliferation did occur at 50 mg/kg
- effect on PHA response (in words) (spleen lymphocytes [2]; i.p., PHA): No statistically significant measurable effect
- Lymphocyte Stimulation Index, Con-A (human lymphocytes; 0.1 μg/well): 24.37
- Lymphocyte Stimulation Index, PHA (human lymphocytes; 0.1 μg/well): 38.29
- Lymphocyte Stimulation Index, Con-A (human lymphocytes; 1.0 μg/well): 24.76
- Lymphocyte Stimulation Index, PHA (human lymphocytes; 1.0 μg/well): 34.69
- Lymphocyte Stimulation Index, Con-A (human lymphocytes; 10 μg/well): 27.35
- Lymphocyte Stimulation Index, PHA (human lymphocytes; 10 μg/well): 35.10
- Lymphocyte Stimulation Index, Con-A (human lymphocytes; 50 μg/well): 23.31
- Lymphocyte Stimulation Index, PHA (human lymphocytes; 50 μg/well): 35.93
- Lymphocyte Stimulation Index, Con-A (human lymphocytes; 100 μg/well): 25.18
- Lymphocyte Stimulation Index, PHA (human lymphocytes; 100 μg/well): 34.23
- effect on lymphocyte response (in words) (human lymphocytes; in vitro, PHA and Con-A): no significant proliferative or anti-proliferative effect

SMILES: O=C1CCC(=O)N1 [Succinimide, succinimide, reference compound]
- Lymphocyte Stimulation Index, Control (no mitogen) (spleen lymphocytes [1]; 13.92 μg/well): 1.4
- effect on PHA and Con-A mitogenesis (in words) (spleen lymphocytes [1]; in vitro): no significant suppressive or enhancing effect

SMILES: O=C(O)CCC(=O)O [Succinic Acid, succinic acid, reference compound]
- effect on PHA and Con-A mitogenesis (in words) (spleen lymphocytes [1]; in vitro): a decrease in PHA and Con-A mitogenesis with increased succinic acid dosage

— US4518611A, “2-Furylbutyrolactone modulation of the immune system in mammals” (priority 1983, dated 1985)
